Assay results from publication doi:10.1101/2024.02.28.577416v1 (biorxiv, 2024).
Substitutions are numbered along the chain they refer to.

Experiments:
SCO4122 [1] = target: T1, SCO4122 (Streptomyces coelicolor, UniProt Q9KYE8); experiment: SPR; assay type: binding
T1 sequence (Q9KYE8 1-182): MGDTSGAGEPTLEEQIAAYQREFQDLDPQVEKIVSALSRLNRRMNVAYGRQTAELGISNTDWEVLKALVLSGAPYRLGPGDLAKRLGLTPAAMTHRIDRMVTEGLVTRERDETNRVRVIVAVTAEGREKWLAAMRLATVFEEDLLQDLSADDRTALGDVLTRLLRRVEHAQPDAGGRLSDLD

SCO4122 [2] = target: T2, SCO4122 (Streptomyces coelicolor, UniProt Q9KYE8, M93L); experiment: SPR; assay type: binding
T2 sequence (Q9KYE8 1-182 M93L): T1 sequence (Q9KYE8 1-182) with M93L

SMILES	Kd (SCO4122 [1]) [µM]	Kd (SCO4122 [2]) [µM]
[H]/N=C(/N)N[C@H]1[C@H](O)[C@@H](O)[C@H](O[C@@H]2O[C@@H](C)[C@](O)(C=O)[C@H]2O[C@@H]2O[C@@H](CO)[C@H](O)[C@@H](O)[C@@H]2NC)[C@@H](N/C(N)=N\[H])[C@@H]1O [streptomycin]	0.73	53.9
CN(C)[C@@H]1C(=O)C(C(N)=O)=C(O)[C@@]2(O)C(=O)C3=C(O)c4c(O)cccc4[C@@](C)(O)[C@H]3C[C@@H]12 [tetracycline]	2.68	2.43

Further lines, with some results ahead:

Kd (SCO4122 [1]) [µM]	SMILES	Kd (SCO4122 [2]) [µM]
1.39	CC[n+]1c(-c2ccccc2)c2cc(N)ccc2c2ccc(N)cc21 [EtBr]	
2000	O=C(N[C@H](CO)[C@H](O)c1ccc([N+](=O)[O-])cc1)C(Cl)Cl [chloramphenicol]	
31	O=C(O)c1cn(C2CC2)c2cc(N3CCNCC3)c(F)cc2c1=O [ciprofloxacin]	
